Positions of bridges follow the written chain, without caps; N, C: chain ends. Non-standard residues stand in square brackets, D forms with d. Residues, ends and D or L forms follow the SMILES beside them. NMeC = CN[C@@H](CS)C(=O)O; NMeA = CN[C@@H](C)C(=O)O; dAbu = CC[C@@H](N)C(=O)O; dNMeA = CN[C@H](C)C(=O)O; Abu = CC[C@H](N)C(=O)O; Nleu = CC(C)CNCC(=O)O; NEtG = CCNCC(=O)O
test: in vitro; details: PAMPA, pH 7.4, PAMPA Pe_avg

SMILES	Papp at 10 µM [×10⁻⁶ cm/s]
CCOC(=O)[C@@H]1CSCC(=O)N[C@H](CC)C(=O)N(C)[C@@H](C)C(=O)N[C@H](CC(C)C)C(=O)N2CCC[C@@H]2C(=O)N(CC)CC(=O)N[C@H](CC(C)C)C(=O)N(C)[C@H](C)C(=O)N[C@@H](CC(C)C)C(=O)N1C [JF206_ADD_DDDD_Ethyl] ({CH2CO}-[dAbu][NMeA][dL][dP][NEtG][dL][dNMeA]L[NMeC]-OEt; thioether N-9)	0.16
CCOC(=O)[C@@H]1CSCC(=O)N[C@@H](CC)C(=O)N(C)[C@@H](C)C(=O)N[C@@H](CC(C)C)C(=O)N2CCC[C@H]2C(=O)N(CC)CC(=O)N[C@@H](CC(C)C)C(=O)N(C)[C@H](C)C(=O)N[C@@H](CC(C)C)C(=O)N1C [JF206_ALL_LLLD_Ethyl] ({CH2CO}-[Abu][NMeA]LP[NEtG]L[dNMeA]L[NMeC]-OEt; thioether N-9)	0.014
CCOC(=O)[C@@H]1CSCC(=O)N[C@@H](CC)C(=O)N(C)[C@@H](C)C(=O)N[C@@H](CC(C)C)C(=O)N2CCC[C@H]2C(=O)N(CC(C)C)CC(=O)N[C@@H](CC(C)C)C(=O)N(C)[C@H](C)C(=O)N[C@@H](CC(C)C)C(=O)N1C [JF206_ALL_LLLD_Isobutyl] ({CH2CO}-[Abu][NMeA]LP[Nleu]L[dNMeA]L[NMeC]-OEt; thioether N-9)	0.139
CCOC(=O)[C@@H]1CSCC(=O)N[C@@H](CC)C(=O)N(C)[C@@H](C)C(=O)N[C@H](CC(C)C)C(=O)N2CCC[C@@H]2C(=O)N(CC)CC(=O)N[C@@H](CC(C)C)C(=O)N(C)[C@@H](C)C(=O)N[C@@H](CC(C)C)C(=O)N1C [JF206_ADL_LDLL_Ethyl] ({CH2CO}-[Abu][NMeA][dL][dP][NEtG]L[NMeA]L[NMeC]-OEt; thioether N-9)	0.013
CCOC(=O)[C@@H]1CSCC(=O)N[C@@H](CC)C(=O)N(C)[C@@H](C)C(=O)N[C@@H](CC(C)C)C(=O)N2CCC[C@H]2C(=O)N(CC(C)C)CC(=O)N[C@H](CC(C)C)C(=O)N(C)[C@@H](C)C(=O)N[C@@H](CC(C)C)C(=O)N1C [JF206_ALL_LLDL_Isobutyl] ({CH2CO}-[Abu][NMeA]LP[Nleu][dL][NMeA]L[NMeC]-OEt; thioether N-9)	0.093
CCOC(=O)[C@@H]1CSCC(=O)N[C@H](CC)C(=O)N(C)[C@@H](C)C(=O)N[C@H](CC(C)C)C(=O)N2CCC[C@H]2C(=O)N(CC)CC(=O)N[C@H](CC(C)C)C(=O)N(C)[C@@H](C)C(=O)N[C@@H](CC(C)C)C(=O)N1C [JF206_ALD_DDDL_Ethyl] ({CH2CO}-[dAbu][NMeA][dL]P[NEtG][dL][NMeA]L[NMeC]-OEt; thioether N-9)	0.18
CCOC(=O)[C@@H]1CSCC(=O)N[C@@H](CC)C(=O)N(C)[C@@H](C)C(=O)N[C@@H](CC(C)C)C(=O)N2CCC[C@H]2C(=O)N(CC)CC(=O)N[C@H](CC(C)C)C(=O)N(C)[C@H](C)C(=O)N[C@@H](CC(C)C)C(=O)N1C [JF206_ALL_LLDD_Ethyl] ({CH2CO}-[Abu][NMeA]LP[NEtG][dL][dNMeA]L[NMeC]-OEt; thioether N-9)	0.00468
CCOC(=O)[C@@H]1CSCC(=O)N[C@H](CC)C(=O)N(C)[C@@H](C)C(=O)N[C@H](CC(C)C)C(=O)N2CCC[C@H]2C(=O)N(CC)CC(=O)N[C@@H](CC(C)C)C(=O)N(C)[C@H](C)C(=O)N[C@@H](CC(C)C)C(=O)N1C [JF206_ALD_DDLD_Ethyl] ({CH2CO}-[dAbu][NMeA][dL]P[NEtG]L[dNMeA]L[NMeC]-OEt; thioether N-9)	0.007
CCOC(=O)[C@@H]1CSCC(=O)N[C@@H](CC)C(=O)N(C)[C@@H](C)C(=O)N[C@@H](CC(C)C)C(=O)N2CCC[C@@H]2C(=O)N(CC)CC(=O)N[C@H](CC(C)C)C(=O)N(C)[C@H](C)C(=O)N[C@@H](CC(C)C)C(=O)N1C [JF206_ADL_LLDD_Ethyl] ({CH2CO}-[Abu][NMeA]L[dP][NEtG][dL][dNMeA]L[NMeC]-OEt; thioether N-9)	0.018
CCOC(=O)[C@@H]1CSCC(=O)N[C@H](CC)C(=O)N(C)[C@@H](C)C(=O)N[C@@H](CC(C)C)C(=O)N2CCC[C@H]2C(=O)N(CC(C)C)CC(=O)N[C@@H](CC(C)C)C(=O)N(C)[C@@H](C)C(=O)N[C@@H](CC(C)C)C(=O)N1C [JF206_ALD_DLLL_Isobutyl] ({CH2CO}-[dAbu][NMeA]LP[Nleu]L[NMeA]L[NMeC]-OEt; thioether N-9)	0.598
CCOC(=O)[C@@H]1CSCC(=O)N[C@@H](CC)C(=O)N(C)[C@@H](C)C(=O)N[C@@H](CC(C)C)C(=O)N2CCC[C@H]2C(=O)N(CC(C)C)CC(=O)N[C@H](CC(C)C)C(=O)N(C)[C@H](C)C(=O)N[C@@H](CC(C)C)C(=O)N1C [JF206_ALL_LLDD_Isobutyl] ({CH2CO}-[Abu][NMeA]LP[Nleu][dL][dNMeA]L[NMeC]-OEt; thioether N-9)	0.182
CCOC(=O)[C@@H]1CSCC(=O)N[C@H](CC)C(=O)N(C)[C@@H](C)C(=O)N[C@@H](CC(C)C)C(=O)N2CCC[C@H]2C(=O)N(CC(C)C)CC(=O)N[C@H](CC(C)C)C(=O)N(C)[C@H](C)C(=O)N[C@@H](CC(C)C)C(=O)N1C [JF206_ALD_DLDD_Isobutyl] ({CH2CO}-[dAbu][NMeA]LP[Nleu][dL][dNMeA]L[NMeC]-OEt; thioether N-9)	0.038
CCOC(=O)[C@@H]1CSCC(=O)N[C@H](CC)C(=O)N(C)[C@@H](C)C(=O)N[C@H](CC(C)C)C(=O)N2CCC[C@H]2C(=O)N(CC(C)C)CC(=O)N[C@@H](CC(C)C)C(=O)N(C)[C@@H](C)C(=O)N[C@@H](CC(C)C)C(=O)N1C [JF206_ALD_DDLL_Isobutyl] ({CH2CO}-[dAbu][NMeA][dL]P[Nleu]L[NMeA]L[NMeC]-OEt; thioether N-9)	0.075
CCOC(=O)[C@@H]1CSCC(=O)N[C@H](CC)C(=O)N(C)[C@@H](C)C(=O)N[C@@H](CC(C)C)C(=O)N2CCC[C@@H]2C(=O)N(CC)CC(=O)N[C@@H](CC(C)C)C(=O)N(C)[C@H](C)C(=O)N[C@@H](CC(C)C)C(=O)N1C [JF206_ADD_DLLD_Ethyl] ({CH2CO}-[dAbu][NMeA]L[dP][NEtG]L[dNMeA]L[NMeC]-OEt; thioether N-9)	0.174
CCOC(=O)[C@@H]1CSCC(=O)N[C@H](CC)C(=O)N(C)[C@@H](C)C(=O)N[C@@H](CC(C)C)C(=O)N2CCC[C@H]2C(=O)N(CC(C)C)CC(=O)N[C@@H](CC(C)C)C(=O)N(C)[C@H](C)C(=O)N[C@@H](CC(C)C)C(=O)N1C [JF206_ALD_DLLD_Isobutyl] ({CH2CO}-[dAbu][NMeA]LP[Nleu]L[dNMeA]L[NMeC]-OEt; thioether N-9)	0.117
CCOC(=O)[C@@H]1CSCC(=O)N[C@H](CC)C(=O)N(C)[C@@H](C)C(=O)N[C@@H](CC(C)C)C(=O)N2CCC[C@@H]2C(=O)N(CC)CC(=O)N[C@H](CC(C)C)C(=O)N(C)[C@@H](C)C(=O)N[C@@H](CC(C)C)C(=O)N1C [JF206_ADD_DLDL_Ethyl] ({CH2CO}-[dAbu][NMeA]L[dP][NEtG][dL][NMeA]L[NMeC]-OEt; thioether N-9)	0.003
CCOC(=O)[C@@H]1CSCC(=O)N[C@@H](CC)C(=O)N(C)[C@@H](C)C(=O)N[C@@H](CC(C)C)C(=O)N2CCC[C@@H]2C(=O)N(CC(C)C)CC(=O)N[C@H](CC(C)C)C(=O)N(C)[C@H](C)C(=O)N[C@@H](CC(C)C)C(=O)N1C [JF206_ADL_LLDD_Isobutyl] ({CH2CO}-[Abu][NMeA]L[dP][Nleu][dL][dNMeA]L[NMeC]-OEt; thioether N-9)	0.286
CCOC(=O)[C@@H]1CSCC(=O)N[C@H](CC)C(=O)N(C)[C@@H](C)C(=O)N[C@@H](CC(C)C)C(=O)N2CCC[C@H]2C(=O)N(CC(C)C)CC(=O)N[C@H](CC(C)C)C(=O)N(C)[C@@H](C)C(=O)N[C@@H](CC(C)C)C(=O)N1C [JF206_ALD_DLDL_Isobutyl] ({CH2CO}-[dAbu][NMeA]LP[Nleu][dL][NMeA]L[NMeC]-OEt; thioether N-9)	0.248
CCOC(=O)[C@@H]1CSCC(=O)N[C@H](CC)C(=O)N(C)[C@@H](C)C(=O)N[C@@H](CC(C)C)C(=O)N2CCC[C@@H]2C(=O)N(CC(C)C)CC(=O)N[C@H](CC(C)C)C(=O)N(C)[C@H](C)C(=O)N[C@@H](CC(C)C)C(=O)N1C [JF206_ADD_DLDD_Isobutyl] ({CH2CO}-[dAbu][NMeA]L[dP][Nleu][dL][dNMeA]L[NMeC]-OEt; thioether N-9)	0.118
CCOC(=O)[C@@H]1CSCC(=O)N[C@@H](CC)C(=O)N(C)[C@@H](C)C(=O)N[C@@H](CC(C)C)C(=O)N2CCC[C@H]2C(=O)N(CC)CC(=O)N[C@H](CC(C)C)C(=O)N(C)[C@@H](C)C(=O)N[C@@H](CC(C)C)C(=O)N1C [JF206_ALL_LLDL_Ethyl] ({CH2CO}-[Abu][NMeA]LP[NEtG][dL][NMeA]L[NMeC]-OEt; thioether N-9)	0.003
CCOC(=O)[C@@H]1CSCC(=O)N[C@@H](CC)C(=O)N(C)[C@@H](C)C(=O)N[C@@H](CC(C)C)C(=O)N2CCC[C@@H]2C(=O)N(CC(C)C)CC(=O)N[C@H](CC(C)C)C(=O)N(C)[C@@H](C)C(=O)N[C@@H](CC(C)C)C(=O)N1C [JF206_ADL_LLDL_Isobutyl] ({CH2CO}-[Abu][NMeA]L[dP][Nleu][dL][NMeA]L[NMeC]-OEt; thioether N-9)	0.229
CCOC(=O)[C@@H]1CSCC(=O)N[C@@H](CC)C(=O)N(C)[C@@H](C)C(=O)N[C@H](CC(C)C)C(=O)N2CCC[C@H]2C(=O)N(CC)CC(=O)N[C@@H](CC(C)C)C(=O)N(C)[C@H](C)C(=O)N[C@@H](CC(C)C)C(=O)N1C [JF206_ALL_LDLD_Ethyl] ({CH2CO}-[Abu][NMeA][dL]P[NEtG]L[dNMeA]L[NMeC]-OEt; thioether N-9)	0.012
CCOC(=O)[C@@H]1CSCC(=O)N[C@@H](CC)C(=O)N(C)[C@@H](C)C(=O)N[C@@H](CC(C)C)C(=O)N2CCC[C@H]2C(=O)N(CC)CC(=O)N[C@@H](CC(C)C)C(=O)N(C)[C@@H](C)C(=O)N[C@@H](CC(C)C)C(=O)N1C [JF206_ALL_LLLL_Ethyl] ({CH2CO}-[Abu][NMeA]LP[NEtG]L[NMeA]L[NMeC]-OEt; thioether N-9)	0.678
CCOC(=O)[C@@H]1CSCC(=O)N[C@H](CC)C(=O)N(C)[C@@H](C)C(=O)N[C@@H](CC(C)C)C(=O)N2CCC[C@@H]2C(=O)N(CC(C)C)CC(=O)N[C@@H](CC(C)C)C(=O)N(C)[C@@H](C)C(=O)N[C@@H](CC(C)C)C(=O)N1C [JF206_ADD_DLLL_Isobutyl] ({CH2CO}-[dAbu][NMeA]L[dP][Nleu]L[NMeA]L[NMeC]-OEt; thioether N-9)	0.688

Reference: paper PMC10885153, “Membrane Permeability in a Large Macrocyclic Peptide Driven by a Saddle-Shaped Conformation” (Journal of the American Chemical Society, 2024)
